Data from patent US6436933B1 (priority 2001, dated 2002).

Legend:
[1] = biological target: T1, Anthrax Lethal Factor (ALF) (Bacillus anthracis, UniProt P15917); format: biochemical
[2] = biological target: T1, Anthrax Lethal Factor (ALF); experiment: biochemical; format: biochemical
B anthracis = settings: monkey, in vivo; cited from earlier work

T1 sequence (P15917 34-809 limits assumed): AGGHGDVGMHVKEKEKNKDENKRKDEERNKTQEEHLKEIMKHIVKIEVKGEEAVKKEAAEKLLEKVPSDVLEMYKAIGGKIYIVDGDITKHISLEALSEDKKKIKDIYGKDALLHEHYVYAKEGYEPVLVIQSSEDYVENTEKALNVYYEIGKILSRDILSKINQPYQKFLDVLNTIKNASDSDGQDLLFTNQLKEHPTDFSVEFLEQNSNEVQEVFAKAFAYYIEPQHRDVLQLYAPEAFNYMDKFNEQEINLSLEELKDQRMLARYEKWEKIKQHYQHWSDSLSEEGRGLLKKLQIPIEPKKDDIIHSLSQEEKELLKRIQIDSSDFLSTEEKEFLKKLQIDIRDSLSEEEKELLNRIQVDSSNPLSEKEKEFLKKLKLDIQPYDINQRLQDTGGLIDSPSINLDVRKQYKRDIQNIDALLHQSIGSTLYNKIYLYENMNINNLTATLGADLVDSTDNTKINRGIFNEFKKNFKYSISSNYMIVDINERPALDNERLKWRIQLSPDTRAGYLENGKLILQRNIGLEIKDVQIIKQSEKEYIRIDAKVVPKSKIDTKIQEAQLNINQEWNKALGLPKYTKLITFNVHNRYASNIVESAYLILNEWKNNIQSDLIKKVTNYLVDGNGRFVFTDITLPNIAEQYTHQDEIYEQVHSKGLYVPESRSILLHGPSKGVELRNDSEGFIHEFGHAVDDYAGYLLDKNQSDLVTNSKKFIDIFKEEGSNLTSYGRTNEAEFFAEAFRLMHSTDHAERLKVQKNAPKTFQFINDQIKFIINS

Compound: CC(C)c1nc(-c2ccccc2)c(-c2ccccc2)n(O)c1=O [Compound 1, 3-isoprpyl-5,6dipheny-1-1-hydroxy-2-oxo-1,2-dihydropyrazine]
- Activity by Gel, % @ 200 [1]: 0% @ 200

Compound: CCc1nc(C(C)C)c(=O)n(O)c1CC [Compound 2, 3-isopropyl-5,6diethyl-1-hydroxy-2-oxo-1,2dihydropyrazine]
- Activity by Gel, % @ 200 [1]: 0% @ 200

Compound: Cc1c(-c2ccccc2)nc(CC(C)C)c(=O)n1O [Compound 3, 1-hydroxy-6-methyl-3-(2-methylpropyl)-5-phenylhydropyrazin-2-one]
- Activity by Gel, % @ 200 [1]: 0% @ 200

Compound: CC(C)Cc1nc(-c2ccccc2)cn(O)c1=O [Compound 4, 1-hydroxy-3-(2-methylpropyl)-5-phenylhydropyrazin-2-one]
- Activity by Gel, % @ 200 [1]: 0% @ 200

Compound: O=c1c(Cc2ccccc2)nc(-c2ccccc2)c(-c2ccccc2)n1O [Compound 5, 1-hydroxy-5,6-diphenyl-3-benzylhydropyrazin-2-one]
- Activity by Gel, % @ 200 [1]: 45% @ 200
- IC50 [2]: 6 µM

Compound: Cc1c(-c2ccccc2)nc(Cc2ccccc2)c(=O)n1O [Compound 6, 1-hydroxy-6-methyl-5-phenyl-3-benzylhydropyrazin-2-one]
- IC50 [2]: 70 µM

Compound: O=c1c(Cc2ccccc2)nc(-c2ccccc2)cn1O [Compound 7, 1-hydroxy-5-phenyl-3-benzylhydropyrazin-2-one]
- IC50 [2]: 15 µM

Compound: O=c1c(Cc2ccc(-c3ccccc3)cc2)nc(-c2ccccc2)c(-c2ccccc2)n1O [Compound 11, 3-(4′-phenyl)-benzyl-5,6diphenyl-1-hydroxy-2-oxo-1,2-dihydropyrazine]
- Activity by Gel, % @ 100 [1]: 2% @ 100

Compound: Cc1c(-c2ccccc2)nc(Cc2ccc(-c3ccccc3)cc2)c(=O)n1O [Compound 12, 3-(4′-phenyl)-benzyl-5-phenyl-6-methyl-1-hydroxy-2-oxo-1,2-dihydropyrazine]
- IC50 [2]: 15 µM

Compound: O=c1c(Cc2ccccc2)nc(-c2ccc(N3CCOCC3)cc2)cn1O [Compound 14, 1-hydroxy-5-(4-morpholin-4-ylphenyl)-3-benzylhydropyrazin-2-one]
- Activity by plate, % @ 100 [2]: 0% @ 100

Compound: O=c1c(Cc2ccccc2)nc(-c2ccc(F)cc2)cn1O [Compound 15, 5-(4-fluorophenyl)-1-hydroxy-3-benzylhydropyrazin-2-one]
- Activity by plate, % @ 100 [2]: 33% @ 100

Compound: O=c1c(Cc2ccccc2)nc(-c2cccs2)cn1O [Compound 16, 1-hydroxy-3-benzyl-5-(2-thienyl)hydropyrazin-2-one]
- Activity by plate, % @ 100 [2]: 33% @ 100

Compound: O=c1c(Cc2ccccc2)nc(-c2ccc(-c3ccccc3)cc2)cn1O [Compound 17, 1-hydroxy-3-benzyl-5-(4-phenylphenyl)hydropyrazin-2-one]
- Activity by plate, % @ 100 [2]: 41% @ 100

Compound: O=c1c(Cc2ccccc2)nc(-c2ccc(C3CCCCC3)cc2)cn1O [Compound 18, 5-(4-cyclohexylphenyl)-1-hydroxy-3-benzylhydropyrazin-2-one]
- IC50 [2]: 8 µM

Compound: O=c1c(Cc2ccccc2)nc(-c2ccc3ccccc3c2)cn1O [Compound 19, 1-hydroxy-5-(2-naphthyl)-3-benzylhydropyrazin-2-one]
- Activity by plate, % @ 100 [2]: 59% @ 100

Compound: O=c1c(Cc2ccccc2)nc(-c2ccc(Br)cc2)cn1O [Compound 20, 5-(4-bromophenyl)-1-hydroxy-3-benzylhydropyrazin-2-one]
- Activity by plate, % @ 100 [2]: 63% @ 100

Compound: O=c1c(Cc2ccccc2)nc(-c2ccc(O)cc2)cn1O [Compound 21, 1-hydroxy-5-(4-hydroxyphenyl)-3-benzylhydropyrazin-2-one]
- Activity by plate, % @ 100 [2]: 7% @ 100

Compound: O=c1c(Cc2ccccc2)nc(-c2ccc3c(c2)OCO3)cn1O [Compound 22, 5-(2H-benzo[d]1,3-dioxolen-5-yl)-1-hydroxy-3-benzylhydropyrazin-2-one]
- Activity by plate, % @ 100 [2]: 39% @ 100

Compound: O=c1c(Cc2ccccc2)nc(-c2ccc([N+](=O)[O-])cc2)cn1O [Compound 23, 1-hydroxy-5-(4-nitrophenyl)-3-benzylhydropyrazin-2-one]
- Activity by plate, % @ 100 [2]: 7% @ 100

Compound: N#Cc1ccc(-c2cn(O)c(=O)c(Cc3ccccc3)n2)cc1 [Compound 24, 4-[4-hydroxy-5-oxo-6-benzyl-4-hydropyrazin-2-yl]benzenecarbonitrile]
- Activity by plate, % @ 100 [2]: 41% @ 100

Compound: CC(=O)Nc1ccc(-c2cn(O)c(=O)c(Cc3ccccc3)n2)cc1 [Compound 25, N-{4-[4-hydroxy-5-oxo-6-benzyl-4-hydropyrazin-2-yl]phenyl}acetamide]
- Activity by plate, % @ 100 [2]: 19% @ 100

Compound: O=c1c(Cc2ccc(-c3ccccc3)cc2)nc(-c2ccc(N3CCOCC3)cc2)cn1O [Compound 26, 1-hydroxy-5-(4-morpholin-4-ylphenyl)-3-[(4-phenylphenyl)methyl] hydropyrazin-2-one]
- Activity by plate, % @ 100 [2]: 37% @ 100

Compound: O=c1c(Cc2ccc(-c3ccccc3)cc2)nc(-c2ccc(F)cc2)cn1O [Compound 27, 5-(4-fluorophenyl)-1-hydroxy-3-[(4-phenylphenyl)methyl]hydropyrazin-2-one]
- Activity by plate, % @ 100 [2]: 12% @ 100

Compound: O=c1c(Cc2ccc(-c3ccccc3)cc2)nc(-c2ccc(-c3ccccc3)cc2)cn1O [Compound 28, 1-hydroxy-5-(4-phenylphenyl)-3-[(4-phenylphenyl)methyl]hydropyrazin-2-one]
- IC50 [2]: 12 µM

Compound: O=c1c(Cc2ccc(-c3ccccc3)cc2)nc(-c2ccc(C3CCCCC3)cc2)cn1O [Compound 29, 5-(4-cyclohexylphenyl)-1-hydroxy-3-[(4-phenylphenyl)methyl] hydropyrazin-2-one]
- Activity by plate, % @ 100 [2]: 59% @ 100

Compound: O=c1c(Cc2ccc(-c3ccccc3)cc2)nc(-c2ccc3ccccc3c2)cn1O [Compound 30, 1-hydroxy-5-(2-naphthyl)-3-[(4-phenylphenyl)methyl]hydropyrazin-2-one]
- Activity by plate, % @ 100 [2]: 54% @ 100

Compound: O=c1c(Cc2ccc(-c3ccccc3)cc2)nc(-c2ccc(Br)cc2)cn1O [Compound 31, 5-(4-bromophenyl)-1-hydroxy-3-[(4-phenylphenyl)methyl]hydropyrazin-2-one]
- IC50 [2]: 5 µM

Compound: O=c1c(Cc2ccc(-c3ccccc3)cc2)nc(-c2ccc3c(c2)OCO3)cn1O [Compound 32, 5-(2H-benzo[d]1,3-dioxolen-5-yl)-1-hydroxy-3-[(4-phenylphenyl)methyl] hydropyrazin-2-one]
- Activity by plate, % @ 100 [2]: 40% @ 100

Compound: N#Cc1ccc(-c2cn(O)c(=O)c(Cc3ccc(-c4ccccc4)cc3)n2)cc1 [Compound 33, 4-{4-hydroxy-5-oxo-6-[(4-phenylphenyl)methyl]-4-hydropyrazin-2-yl} benzenecarbonitrile]
- Activity by plate, % @ 100 [2]: 51% @ 100

Compound: O=c1c(Cc2ccccc2)nc(-c2ccc(Cl)c(Cl)c2)cn1O [Compound 39, 5-(3,4-dichlorophenyl)-1-hydroxy-3-benzylhydropyrazin-2-one]
- Activity by plate, % @ 100 [2]: 45% @ 100

Compound: Cc1cc(-c2cn(O)c(=O)c(Cc3ccccc3)n2)ccc1Cl [Compound 40, 5-(4-chloro-3-methylphenyl)-1-hydroxy-3-benzylhydropyrazin-2-one]
- Activity by plate, % @ 100 [2]: 18% @ 100

Compound: Cc1ccc(-c2cn(O)c(=O)c(Cc3ccccc3)n2)cc1 [Compound 41, 1-hydroxy-5-(4-methylphenyl)-3-benzylhydropyrazin-2-one]
- Activity by plate, % @ 100 [2]: 13% @ 100

Compound: CCCCCc1ccc(-c2cn(O)c(=O)c(Cc3ccccc3)n2)cc1 [Compound 42, 1-hydroxy-5-(4-pentylphenyl)-3-benzylhydropyrazin-2-one]
- Activity by plate, % @ 100 [2]: 16% @ 100

Compound: O=c1c(Cc2ccccc2)nc(-c2ccc(C(F)(F)F)cc2)cn1O [Compound 43, 1-hydroxy-3-benzyl-5-[4-(trifluoromethyl)phenyl]hydropyrazin-2-one]
- Activity by plate, % @ 100 [2]: 0% @ 100

Compound: O=c1c(Cc2ccc(-c3ccccc3)cc2)nc(-c2ccc(Cl)c(Cl)c2)cn1O [Compound 44, 5-(3,4-dichlorophenyl)-1-hydroxy-3-[(4-phenylphenyl)methyl] hydropyrazin-2-one]
- Activity by plate, % @ 100 [2]: 45% @ 100

Compound: Cc1cc(-c2cn(O)c(=O)c(Cc3ccc(-c4ccccc4)cc3)n2)ccc1Cl [Compound 45, 5-(4-chloro-3-methylphenyl)-1-hydroxy-3-[(4-phenylphenyl)methyl] hydropyrazin-2-one]
- Activity by plate, % @ 100 [2]: 47% @ 100

Compound: Cc1ccc(-c2cn(O)c(=O)c(Cc3ccc(-c4ccccc4)cc3)n2)cc1 [Compound 46, 1-hydroxy-5-(4-methylphenyl)-3-[(4-phenylphenyl)methyl]hydropyrazin-2-one]
- Activity by plate, % @ 100 [2]: 46% @ 100

Compound: CCCCCc1ccc(-c2cn(O)c(=O)c(Cc3ccc(-c4ccccc4)cc3)n2)cc1 [Compound 47, 1-hydroxy-5-(4-pentylphenyl)-3-[(4-phenylphenyl)methyl]hydropyrazin-2-one]
- Activity by plate, % @ 100 [2]: 39% @ 100

Compound: O=c1c(Cc2ccc(-c3ccccc3)cc2)nc(-c2ccc(C(F)(F)F)cc2)cn1O [Compound 48, 1-hydroxy-3-[(4-phenylphenyl)methyl]-5-[4-(trifluoromethyl)phenyl] hydropyrazin-2-one]
- Activity by plate, % @ 100 [2]: 25% @ 100

Compound: O=C(O)c1cn(C2CC2)c2cc(N3CCNCC3)c(F)cc2c1=O [ciprofloxacin]
- monkeys that survived a lethal aerosol challenge (B anthracis): 8 of 9

Compound: penicillin
- monkeys that survived a lethal aerosol challenge (B anthracis): 7 of 10
